These results are taken from PubChem BioAssay AID248 (DTP/NCI, 2004).

“And” between values parts separate entries of the source, which are not always exact repeats. Equal values may be shown once. Inconclusive results and toxic doses are left out.

This experiment relates to L1210 leukemia ip in BDF1 mice, survival T/C. Kind of experiment: NCI In Vivo Anticancer Drug Screen. Data for tumor model L1210 Leukemia (intraperitoneal) in B6D2F1 (BDF1) mice. Conditions: endpoint: mean survival time, higher = longer survival. In a few lines: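 Ratio derived from survival: compound-dosed mice over vehicle-dosed mice, all bearing a transplantable tumor.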

[1] abbreviates: dose: 100.0 mg/kg/injection, schedule: Q04DX002 (ip), vehicle: saline with Tween-80.
The mark [2] stands for this setting: dose: 200.0 mg/kg/injection, schedule: Q04DX002 (ip), vehicle: saline with Tween-80.
[3] abbreviates: dose: 400.0 mg/kg/injection, schedule: Q04DX002 (ip), vehicle: saline with Tween-80.
The mark [4] stands for this setting: dose: 25.0 mg/kg/injection, schedule: Q01DX009 (ip), vehicle: saline with Tween-80.
Setting [5] is: dose: 50.0 mg/kg/injection, schedule: Q01DX009 (ip), vehicle: saline with Tween-80.
[6] abbreviates: dose: 100.0 mg/kg/injection, schedule: Q04DX003 (ip), vehicle: Klucel (hydroxypropylcellulose) (HPC).
[7] abbreviates: dose: 100.0 mg/kg/injection, schedule: Q01DX001 (ip), vehicle: saline with Tween-80.
Setting [8] is: dose: 100.0 mg/kg/injection, schedule: Q01DX009 (ip), vehicle: saline with Tween-80.
Setting [9] is: dose: 100.0 mg/kg/injection, schedule: Q04DX003 (ip), vehicle: saline with Tween-80.
The mark [10] stands for this setting: dose: 200.0 mg/kg/injection, schedule: Q01DX001 (ip), vehicle: saline with Tween-80.
[11] abbreviates: dose: 200.0 mg/kg/injection, schedule: Q01DX009 (ip), vehicle: saline with Tween-80.
The mark [12] stands for this setting: dose: 400.0 mg/kg/injection, schedule: Q01DX001 (ip), vehicle: saline with Tween-80.
The mark [13] stands for this setting: dose: 50.0 mg/kg/injection, schedule: Q01DX009 (ip), vehicle: Klucel (hydroxypropylcellulose) (HPC).
[14] abbreviates: dose: 100.0 mg/kg/injection, schedule: Q01DX009 (ip), vehicle: Klucel (hydroxypropylcellulose) (HPC).
Setting [15] is: dose: 100.0 mg/kg/injection, schedule: Q01DX001 (ip), vehicle: saline.
The mark [16] stands for this setting: dose: 200.0 mg/kg/injection, schedule: Q01DX001 (ip), vehicle: saline.
The mark [17] stands for this setting: dose: 400.0 mg/kg/injection, schedule: Q01DX001 (ip), vehicle: saline.
The mark [18] stands for this setting: dose: 100.0 mg/kg/injection, schedule: Q01DX001 (ip), vehicle: carboxymethylcellulose (CMC).
The mark [19] stands for this setting: dose: 200.0 mg/kg/injection, schedule: Q01DX001 (ip), vehicle: carboxymethylcellulose (CMC).

As for `S=c1c2ccccc2oc2ccccc12`, the T/C was 93 % of control (dose: 50.0 mg/kg/injection, schedule: Q04DX002 (ip), vehicle: saline with Tween-80); 93 % of control under setting [1]; 87 % of control under setting [2]; 97 % of control under setting [3].
Turning to `O=C(CCl)N1CCC(C(O)c2cc3ccccc3n2S(=O)(=O)c2ccccc2)CC1` (stereo not drawn), the T/C is 94 % of control under setting [1], 94 % of control under setting [2] and 97 % of control under setting [3].
In the case of `O=C(O/N=C1\C2CCC(C2)C1Cl)c1ccc([N+](=O)[O-])cc1` (stereo not drawn), the T/C was 94 % of control under setting [4], 88 % of control under setting [5] and 102 % of control under setting [6].
In the case of `O=C(Nc1ccc(I)cc1)Nc1ccc(Cl)cc1[N+](=O)[O-]`, the T/C was 96 % of control under setting [7]; 97 % of control and 92 % of control under setting [8]; 98 % of control and 91 % of control under setting [1]; 93 % of control under setting [9]; 90 % of control under setting [10]; 87 % of control under setting [11]. The T/C is 94 % of control and 98 % of control under setting [2]; 97 % of control (dose: 200.0 mg/kg/injection, schedule: Q04DX003 (ip), vehicle: saline with Tween-80); 87 % of control under setting [12]; 93 % of control and 91 % of control under setting [3]; 95 % of control (dose: 400.0 mg/kg/injection, schedule: Q04DX003 (ip), vehicle: saline with Tween-80).
Turning to `Cc1ccc(S(=O)(=O)OCC2C3CCC(c4ccccc43)C2COS(=O)(=O)c2ccc(C)cc2)cc1` (stereo not drawn), the T/C is, setting by setting: under setting [6], 109 % of control; (dose: 200.0 mg/kg/injection, schedule: Q04DX003 (ip), vehicle: Klucel (hydroxypropylcellulose) (HPC)) 105 % of control; (dose: 400.0 mg/kg/injection, schedule: Q04DX003 (ip), vehicle: Klucel (hydroxypropylcellulose) (HPC)) 88 % of control.
On to `O=C(COc1cccc(Cl)c1)Nc1cc[n+](Cc2ccc(S(=O)(=O)F)cc2)cc1`, for which the T/C runs as follows: (dose: 25.0 mg/kg/injection, schedule: Q04DX003 (ip), vehicle: saline with Tween-80) 102 % of control; (dose: 50.0 mg/kg/injection, schedule: Q04DX003 (ip), vehicle: saline with Tween-80) 100 % of control; under setting [9], 97 % of control and 113 % of control.
Consider `CCN(CC)CCNc1cccc2sc3ccccc3c(=O)c12`, for which the T/C is 92 % of control under setting [13]; 94 % of control under setting [14]; 94 % of control (dose: 200.0 mg/kg/injection, schedule: Q01DX009 (ip), vehicle: Klucel (hydroxypropylcellulose) (HPC)); 100 % of control (dose: 400.0 mg/kg/injection, schedule: Q01DX009 (ip), vehicle: Klucel (hydroxypropylcellulose) (HPC)).
`CNC(=O)CCC(NC(=O)c1ccc(N(C)Cc2cnc3nc(N)nc(N)c3n2)cc1)C(=O)O` (stereo not drawn): the T/C by setting is: (dose: 25.0 mg/kg/injection, schedule: Q01DX009 (ip), vehicle: sodium bicarbonate) 116 % of control; (dose: 100.0 mg/kg/injection, schedule: Q01DX009 (ip), vehicle: sodium bicarbonate) 158 % of control.
Take `OCC(O)C(O)C(O)C(O)C(O)CO` (stereo not drawn): the T/C runs as follows: under setting [15], 98 % of control; under setting [8], 96 % of control; (dose: 100.0 mg/kg/injection, schedule: Q04DX003 (ip), vehicle: saline) 94 % of control; under setting [16], 106 % of control; under setting [11], 110 % of control; (dose: 200.0 mg/kg/injection, schedule: Q04DX003 (ip), vehicle: saline) 97 % of control. In addition, the T/C runs as follows: under setting [17], 95 % of control; (dose: 400.0 mg/kg/injection, schedule: Q01DX009 (ip), vehicle: saline with Tween-80) 90 % of control; (dose: 400.0 mg/kg/injection, schedule: Q04DX003 (ip), vehicle: saline) 106 % of control.
As for `O=c1[nH]cnc2c1ncn2Cc1ccccc1`, the T/C by setting is: under setting [7], 104 % of control; under setting [10], 102 % of control; under setting [12], 96 % of control.
For the compound `Cc1ccc(NCC(=O)NN)cc1C`, the T/C under setting [18] is 106 % of control; the T/C (dose: 100.0 mg/kg/injection, schedule: Q01DX009 (ip), vehicle: carboxymethylcellulose (CMC)) was 106 % of control and 91 % of control; the T/C (dose: 100.0 mg/kg/injection, schedule: Q04DX002 (ip), vehicle: Klucel (hydroxypropylcellulose) (HPC)) is 91 % of control; the T/C (dose: 100.0 mg/kg/injection, schedule: Q04DX002 (ip), vehicle: carboxymethylcellulose (CMC)) is 115 % of control; the T/C (dose: 100.0 mg/kg/injection, schedule: Q04DX003 (ip), vehicle: carboxymethylcellulose (CMC)) was 101 % of control; the T/C under setting [19] is 94 % of control. Also, the T/C was 105 % of control and 109 % of control (dose: 200.0 mg/kg/injection, schedule: Q01DX009 (ip), vehicle: carboxymethylcellulose (CMC)); 98 % of control (dose: 200.0 mg/kg/injection, schedule: Q04DX002 (ip), vehicle: Klucel (hydroxypropylcellulose) (HPC)); 94 % of control (dose: 200.0 mg/kg/injection, schedule: Q04DX002 (ip), vehicle: carboxymethylcellulose (CMC)); 89 % of control (dose: 200.0 mg/kg/injection, schedule: Q04DX003 (ip), vehicle: carboxymethylcellulose (CMC)); 96 % of control (dose: 400.0 mg/kg/injection, schedule: Q01DX001 (ip), vehicle: carboxymethylcellulose (CMC)); 95 % of control and 100 % of control (dose: 400.0 mg/kg/injection, schedule: Q01DX009 (ip), vehicle: carboxymethylcellulose (CMC)). Also, the T/C by setting is: (dose: 400.0 mg/kg/injection, schedule: Q04DX002 (ip), vehicle: Klucel (hydroxypropylcellulose) (HPC)) 113 % of control; (dose: 400.0 mg/kg/injection, schedule: Q04DX002 (ip), vehicle: carboxymethylcellulose (CMC)) 97 % of control; (dose: 400.0 mg/kg/injection, schedule: Q04DX003 (ip), vehicle: carboxymethylcellulose (CMC)) 101 % of control.
Consider `NCC(=O)Nc1ccc(S(=O)(=O)c2ccc(NC(=O)CN)cc2)cc1`, for which the T/C is, setting by setting: under setting [15], 104 % of control; under setting [16], 101 % of control; under setting [17], 98 % of control.
With `CCOC(=O)COC(CN)C(Cl)(Cl)Cl` (stereo not drawn), the T/C is 93 % of control under setting [5], 90 % of control under setting [8] and 90 % of control under setting [11].
For the compound `N#C/C(=C\c1ccccn1)c1ccc(Cl)cc1`, the T/C by setting is: (dose: 100.0 mg/kg/injection, schedule: Q01DX001 (ip), vehicle: other) 95 % of control; (dose: 200.0 mg/kg/injection, schedule: Q01DX001 (ip), vehicle: other) 92 % of control; (dose: 400.0 mg/kg/injection, schedule: Q01DX001 (ip), vehicle: other) 94 % of control.
As for `CCC(CC)C(=O)NC(=O)NC(C)=O`, the T/C reads like this: (dose: 75.0 mg/kg/injection, schedule: Q01DX001 (ip), vehicle: Klucel (hydroxypropylcellulose) (HPC)) 91 % of control; (dose: 150.0 mg/kg/injection, schedule: Q01DX001 (ip), vehicle: Klucel (hydroxypropylcellulose) (HPC)) 102 % of control; (dose: 300.0 mg/kg/injection, schedule: Q01DX001 (ip), vehicle: Klucel (hydroxypropylcellulose) (HPC)) 88 % of control.
Take `CCCCCCCCCCS`: the T/C was 114 % of control under setting [18] and 101 % of control under setting [19].
Take `Nc1nc(N)c2nc(CO)cnc2n1`: the T/C was 98 % of control (dose: 12.5 mg/kg/injection, schedule: Q01DX009 (ip), vehicle: Klucel (hydroxypropylcellulose) (HPC)); 102 % of control (dose: 25.0 mg/kg/injection, schedule: Q01DX009 (ip), vehicle: Klucel (hydroxypropylcellulose) (HPC)); 101 % of control and 105 % of control under setting [13]; 101 % of control under setting [14].
Consider `Nc1cc(Cl)[nH]c(=O)n1`, for which the T/C is 100 % of control (dose: 100.0 mg/kg/injection, schedule: Q01DX009 (ip), vehicle: gum acacia) and 89 % of control (dose: 200.0 mg/kg/injection, schedule: Q01DX009 (ip), vehicle: gum acacia).
As to `c1ccc2c(c1)Cc1ccccc1CN(CCNC1=NCCN1)C2`, the T/C under setting [4] is 91 % of control, the T/C under setting [5] was 102 % of control and the T/C under setting [9] was 98 % of control.
